Read-outs that look alike come from different tables or passages of the source.
Experiment: Metabolic stability and intrinsic clearance in human liver microsomes (MICS)
Assay type: in vitro ADME
Conditions: pH 7.4
How it was run: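 Parent depletion by LC-MS/MS, run in duplicate, gave in vitro t1/2 from the slope of ln(% remaining) versus time, converted to CLint (μL/min/mg protein). Incubations: 1 μM compound, microsomes at 0.5 mg/mL, pH 7.4 phosphate, 37° C, ±1 mM NADPH, timepoints 0.5, 5, 15, 30, 60 min.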

Structure (SMILES) | microsomal CLint at 1 μM (human, microsomes) | microsomal CLint at 1 μM (human liver microsomes 0.5 mg/mL, 1 μM compound, read-out: intrinsic clearance in human MICS)
Cc1cc([C@@H](C)Oc2ccc(Cl)nc2C(N)=O)c2oc(-c3cc(F)c4nn(C)cc4c3)c(C)c(=O)c2c1 [Example 17B, 6-Chloro-3-[(1R)-1-[2-(7-fluoro-2-methyl-indazol-5-yl)-3,6-dimethyl-4-oxo-chromen-8-yl]ethoxy]pyridine-2-carboxamide] | < 50 µL/min/mg | 
CC(=O)Nc1ccc(-c2oc3c([C@@H](C)Oc4ccc(Cl)nc4C(N)=O)cc(C)cc3c(=O)c2C)cc1 [Example 58C, 3-[(1R)-1-[2-(4-Acetamidophenyl)-3,6-dimethyl-4-oxo-chromen-8-yl]ethoxy]-6-chloro-pyridine-2-carboxamide] | < 50 µL/min/mg | 
Cc1cc([C@@H](C)Oc2ccc(Cl)nc2NS(C)(=O)=O)c2oc(-c3cnn(C)c3)c(C)c(=O)c2c1 [Example 149A, N-[6-Chloro-3-[(1R)-1-[3,6-dimethyl-2-(1-methylpyrazol-4-yl)-4-oxo-chromen-8-yl]ethoxy]-2-pyridyl]methanesulfonamide] |  | < 50 µL/min/mg
Cc1cc([C@@H](C)Oc2ccc(Cl)nc2-c2noc(=O)[nH]2)c2oc(-c3ccc4c(c3)OC(F)(F)O4)c(C)c(=O)c2c1 [Example 46A, 3-[6-Chloro-3-[(1R)-1-[2-(2,2-difluoro-1,3-benzodioxol-5-yl)-3,6-dimethyl-4-oxo-chromen-8-yl]ethoxy]-2-pyridyl]-4H-1,2,4-oxadiazol-5-one] | < 50 µL/min/mg | 
Cc1cc([C@@H](C)Oc2ccc(Br)nc2C(N)=O)c2oc(-c3ccc4nn(C)cc4c3)c(C)c(=O)c2c1 [Example 81C, 6-Bromo-3-[(1R)-1-[3,6-dimethyl-2-(2-methylindazol-5-yl)-4-oxo-chromen-8-yl]ethoxy]pyridine-2-carboxamide] | < 50 µL/min/mg | 

Reference: patent US20240182460A1, “ALLOSTERIC CHROMENONE INHIBITORS OF PHOSPHOINOSITIDE 3-KINASE (PI3K) FOR THE TREATMENT OF DISEASE” (PETRA PHARMA CORPORATION, priority 2022, published 2024)
